inhibition, IC50 and change in vivo data for 31 compounds are collected here from patent US5688787A, “Substituted β-lactam compounds useful as hypochlesterolemic agents and processes for the preparation thereof” (priority 1996, dated 1997).

The target of one assay is T1, ACAT (Rattus norvegicus, UniProt Q7TQM4).
T1 construct: Rat liver microsomes are used as the source of ACAT; from tissue; host or cells: rat liver microsomes
T1 sequence (Q7TQM4 1-524): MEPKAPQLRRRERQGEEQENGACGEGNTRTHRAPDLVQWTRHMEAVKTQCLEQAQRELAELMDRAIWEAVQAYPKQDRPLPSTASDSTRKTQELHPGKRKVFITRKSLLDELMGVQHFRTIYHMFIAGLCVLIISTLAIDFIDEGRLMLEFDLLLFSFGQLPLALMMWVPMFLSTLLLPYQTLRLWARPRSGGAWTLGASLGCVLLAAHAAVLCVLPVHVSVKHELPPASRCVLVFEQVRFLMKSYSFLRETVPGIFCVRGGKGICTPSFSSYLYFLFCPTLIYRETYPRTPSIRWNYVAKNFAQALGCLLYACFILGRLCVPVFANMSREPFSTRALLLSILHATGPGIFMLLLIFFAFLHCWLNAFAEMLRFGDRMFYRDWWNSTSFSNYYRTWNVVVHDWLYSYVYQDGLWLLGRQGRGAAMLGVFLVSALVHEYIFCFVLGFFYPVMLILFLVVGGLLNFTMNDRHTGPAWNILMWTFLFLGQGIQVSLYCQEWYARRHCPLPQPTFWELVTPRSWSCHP
The experiment in a line: ACAT Assay (in vitro). It is filed as biochemical. Conditions: for inhibition at 10 µM: Conc. 10 µM, negative = apparent stimulation, read-out: ACAT (in vitro) % Inhib.; for IC50: rat liver microsomes, read-out: ACAT (in vitro) IC50. (In general: Microsomes from liver hold many membrane-bound enzymes, among them those of drug oxidation.)

A further assay relates to Hyperlipidemic Hamster. Description: In Vivo Assay of Hypolipidemic Agents Using the Hyperlipidemic Hamster. The conditions noted are these: Mesocricetus auratus, po, 168 h, 7 days, percent change versus control, negative = lowering; for change in vivo at 50 mg/kg: 50 mg/kg once daily oral; for change in vivo at 25 mg/kg: 25 mg/kg once daily oral. The procedure, abridged:
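Hamsters, six per group, were fed chow with 0.5% cholesterol for seven days and given compound once daily by oral gavage in corn oil; controls received corn oil alone. Plasma (EDTA) and liver lipids were measured at sacrifice. Values are percent change versus control, so negative means lowering.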

[1] abbreviates: read-out: % Reduction (in vivo) Cholest. Esters.
Setting [2] is: read-out: % Reduction (in vivo) Serum Cholest.

Like-named read-outs stand apart in the source and are kept apart here.

Protocol for ACAT: This assay measures the activity of ACAT by measuring the ACAT-mediated transfer of tritiated oleic acid from acyl-CoA to cholesterol to give labelled cholesteryl oleate. Rat liver microsomes are used as the source of ACAT. Assays are performed in round bottom microtiterplates using a total incubation volume of 50 μL. […] The microtiterplate is then floated on the surface of a 37° C. water bath for fifteen minutes. Incubations are started by the addition of 3 μL ^3 H-acyl CoA (1 μCi/well, final concentration of 10 μM acyl CoA). The plate is then returned to the water bath for 15 minutes. The incubations are then terminated by application of 15 μL from each incubation to individual lanes on a thin layer plate (Silica Gel GF 20×20 cm). Standards are applied to several lanes so that the cholesteryl ester band can be identified. After drying, the plates am eluted with 90:10:1 petroleum ether:diethyl ether:acetic acid. The standards am visualized via iodine vapor, and the regions corresponding to cholesteryl ester are scraped into 7 mL scintillation vials. 4 mL of scintillant are added to each vial, and the radioactivity quantified. Background count is determined by the boiled controls. Full activity is determined by activity in the presence of vehicle. The percent inhibition is calculated by subtracting the background from both control and test samples, and the test value is calculated as a percentage of the control.
For the in vitro ACAT data, negative percent inhibition denotes apparent stimulation,while positive numbers denote inhibition.

The IC50 is the point on the concentration scale where inhibition reaches its midpoint. In the case of `CC[C@@]1(CCCc2ccccc2)C(=O)N(c2ccc(OC)cc2)[C@H]1C=Cc1ccccc1` (relative stereo) [Example 3G], the inhibition at 10 µM on ACAT came to 74%. In addition, the IC50 at ACAT is 5 µM. The change in vivo at 50 mg/kg came to 0% in the assay with Hyperlipidemic Hamster (setting [1]) and 9% in the assay on Hyperlipidemic Hamster (setting [2]).
On to `CC[C@]1(CCc2ccccc2)C(=O)N(c2ccc(OC)cc2)[C@H]1c1ccccc1` (relative stereo) [Example 3H], for which the inhibition at 10 µM on ACAT is 66%. The change in vivo at 50 mg/kg with Hyperlipidemic Hamster (setting [1]) is 31%; with Hyperlipidemic Hamster (setting [2]) it was -10%.
As for `COc1ccc(N2C(=O)[C@](C)(CCc3ccccc3)[C@@H]2c2ccccc2)cc1` (relative stereo) [Example 3I], the inhibition at 10 µM on ACAT amounted to 43%. In addition, the change in vivo at 50 mg/kg in the assay on Hyperlipidemic Hamster (setting [1]) was 0%; in the assay with Hyperlipidemic Hamster (setting [2]) it was -9%.
The matching figures for `COc1ccc(N2C(=O)[C@@](C)(CCCc3ccccc3)[C@@H]2c2ccccc2)cc1` (relative stereo) [Example 3J]: 45%, -16% and 0%.
The matching figures for `COc1ccc(N2C(=O)[C@@](C)(CCCCc3ccccc3)[C@@H]2c2ccccc2)cc1` (relative stereo) [Example 3K]: 19%, 0% and 0%.
As to `CC[C@@]1(CCCCc2ccccc2)C(=O)N(c2ccc(OC)cc2)[C@H]1c1ccccc1` (relative stereo) [Example 3L], the inhibition at 10 µM at ACAT was found to be 53%. In addition, the change in vivo at 25 mg/kg with Hyperlipidemic Hamster (setting [1]) and in the assay on Hyperlipidemic Hamster (setting [2]) was 0% throughout.
For the compound `CC[C@]1(CCCc2ccccc2)C(=O)N(c2ccc(OC)cc2)[C@H]1c1ccc(OC)cc1` (relative stereo) [Example 3M], at ACAT, the inhibition at 10 µM worked out at 13%. Moreover, the change in vivo at 50 mg/kg in the assay with Hyperlipidemic Hamster (setting [1]) and in the assay with Hyperlipidemic Hamster (setting [2]) was 0% each time.
`CC[C@@]1(CCCc2ccccc2)C(=O)N(c2ccc(OC)cc2)[C@H]1c1ccc(OC)cc1` (relative stereo) [Example 3O]: the inhibition at 10 µM at ACAT is -28%. Moreover, the change in vivo at 50 mg/kg with Hyperlipidemic Hamster (setting [1]) and with Hyperlipidemic Hamster (setting [2]) was 0% in each case.
Take `CCCCCCCCCC[C@]1(c2ccccc2)C(=O)N(c2ccc(OC)cc2)[C@H]1c1ccccc1` (relative stereo) [Example 3R]: the inhibition at 10 µM on ACAT was -8%. Moreover, the change in vivo at 50 mg/kg in the assay on Hyperlipidemic Hamster (setting [1]) and in the assay with Hyperlipidemic Hamster (setting [2]) was 0% each time.
For the compound `CCCCCCCCCC[C@]1(CCCc2ccccc2)C(=O)N(c2ccc(OC)cc2)[C@@H]1c1ccccc1` (relative stereo) [Example 3U], the inhibition at 10 µM on ACAT is 46%. Besides, the change in vivo at 50 mg/kg in the assay with Hyperlipidemic Hamster (setting [1]) and in the assay with Hyperlipidemic Hamster (setting [2]) was 0% each time.
As for `CCCCCCCCCC[C@]1(CC)C(=O)N(c2c(OC)cc(OC)cc2OC)[C@@H]1c1ccccc1` (relative stereo) [Example 3V], at ACAT, the inhibition at 10 µM amounted to 60% and the IC50 was determined as 6.5 µM. Moreover, the change in vivo at 50 mg/kg with Hyperlipidemic Hamster (setting [1]) was determined as 0%. Moreover, in the assay on Hyperlipidemic Hamster (setting [2]), the change in vivo at 50 mg/kg worked out at 0%.
On to `CCCCCCCCCC[C@@]1(CC)C(=O)N(c2c(OC)cc(OC)cc2OC)[C@@H]1c1ccccc1` (relative stereo) [Example 3W], for which the inhibition at 10 µM at ACAT amounted to 56%. Further, the change in vivo at 50 mg/kg in the assay with Hyperlipidemic Hamster (setting [1]) and in the assay with Hyperlipidemic Hamster (setting [2]) was 0% throughout.
For `CCCCCCCCCC[C@]1(C)C(=O)N(c2ccc(OC)cc2)[C@H]1c1ccccc1` (relative stereo) [Example 3Y], the inhibition at 10 µM on ACAT is -33%. For the same compound, the change in vivo at 50 mg/kg in the assay on Hyperlipidemic Hamster (setting [1]) and in the assay with Hyperlipidemic Hamster (setting [2]) was 0% each time.
`CC[C@@]1(CCCc2ccccc2)C(=O)N(c2ccc(OC)cc2)[C@@H]1/C=C/c1ccccc1` (relative stereo) [Example 3]: the inhibition at 10 µM on ACAT was determined as 56%. For the same compound, the change in vivo at 50 mg/kg with Hyperlipidemic Hamster (setting [1]) and in the assay with Hyperlipidemic Hamster (setting [2]) was 0% each time.
Regarding `COc1ccc([C@@H]2[C@@H](CCCCc3ccccc3)C(=O)N2c2ccc(OC)cc2)cc1` (relative stereo) [Example 5AB], on ACAT, the inhibition at 10 µM was 30%. For the same compound, the change in vivo at 50 mg/kg in the assay on Hyperlipidemic Hamster (setting [1]) is -72%; with Hyperlipidemic Hamster (setting [2]), -28%.
In the case of `COc1ccc(N2C(=O)[C@H](CCCc3ccccc3)[C@H]2c2cccc(OC)c2)cc1` (relative stereo) [Example 5C], the inhibition at 10 µM on ACAT came to 21%. The change in vivo at 50 mg/kg in the assay with Hyperlipidemic Hamster (setting [1]) was -24%; with Hyperlipidemic Hamster (setting [2]) it was -17%.
Consider `COc1ccc([C@@H]2[C@@H](N(C)CCc3ccccc3)C(=O)N2c2ccccc2)cc1` (relative stereo) [Example 5N], for which the inhibition at 10 µM on ACAT is -23%. The change in vivo at 50 mg/kg was -55% in the assay on Hyperlipidemic Hamster (setting [1]) and -17% in the assay on Hyperlipidemic Hamster (setting [2]).
The matching figures for `COc1ccc(N2C(=O)[C@H](CCCc3ccccc3)[C@H]2c2ccc(OC)c(OC)c2)cc1` (relative stereo) [Example 5P]: 53%, -33% and -11%.
As for `COc1ccc(N2C(=O)[C@H](CCCc3ccccc3)[C@H]2c2ccc3c(c2)OCO3)cc1` (relative stereo) [Example 5Q], the inhibition at 10 µM at ACAT was -36%. Further, the change in vivo at 50 mg/kg is -19% in the assay on Hyperlipidemic Hamster (setting [1]) and 0% in the assay on Hyperlipidemic Hamster (setting [2]).
The corresponding values for `COc1ccc(N2C(=O)[C@H](CCCc3ccccc3)[C@H]2c2ccc(C)cc2)cc1` (relative stereo) [Example 5R] are 18%, -21% and -20%.
The matching figures for `CCOc1ccc([C@@H]2[C@@H](CCCc3ccccc3)C(=O)N2c2ccc(OC)cc2)cc1` (relative stereo) [Example 5S]: 28%, -98% and -52%.
For `COc1ccc([C@@H]2[C@@H](CCOc3ccccc3)C(=O)N2c2ccc(OC)cc2)cc1` (relative stereo) [Example 5X], at ACAT, the inhibition at 10 µM was 38%. The results for the change in vivo at 50 mg/kg in the assay on Hyperlipidemic Hamster (setting [1]) and in the assay with Hyperlipidemic Hamster (setting [2]) were -39% and 0%, respectively.
For the compound `CC[C@@]1(CCCc2ccccc2)C(=O)N(c2ccc(OC)cc2)[C@H]1CCc1ccccc1` (relative stereo) [Example 6], at ACAT, the inhibition at 10 µM was 59% and the half-maximal inhibitory concentration (IC50) is 5 µM. Also, in the assay with Hyperlipidemic Hamster (setting [1]), the change in vivo at 50 mg/kg came out at 0%. Besides, the change in vivo at 50 mg/kg in the assay with Hyperlipidemic Hamster (setting [2]) was 14%.
For `COc1ccc([C@@H]2N(c3ccc(OC)cc3)C(=O)[C@@]2(c2ccccc2)C2CCCC2)cc1` (relative stereo) [Example 7AD], the inhibition at 10 µM at ACAT was -22%. Besides, the change in vivo at 50 mg/kg with Hyperlipidemic Hamster (setting [1]) and in the assay on Hyperlipidemic Hamster (setting [2]) was -12% in each case.
`COc1ccc([C@@H]2[C@H](OCCc3ccccc3)C(=O)N2c2ccc(OC)cc2)cc1` (relative stereo) [Example 7AE]: the inhibition at 10 µM at ACAT was -95%. Further, the change in vivo at 50 mg/kg was -10% with Hyperlipidemic Hamster (setting [1]) and -17% with Hyperlipidemic Hamster (setting [2]).
The corresponding values for `COc1ccc([C@@H]2N(c3ccc(OC)cc3)C(=O)[C@]2(Cc2ccccc2)c2ccccc2)cc1` (relative stereo) [Example 7AF] are 53%, -15% and 23%.
The matching figures for `COc1ccc([C@@H]2N(c3ccc(OC)cc3)C(=O)[C@@]2(Cc2ccccc2)c2ccccc2)cc1` (relative stereo) [Example 7AH]: -5%, 16% and 16%.
Take `CC[C@@H]1C(=O)N(c2ccc(OC)cc2)[C@H]1c1ccc(N)cc1` (relative stereo) [Example 8A]: the inhibition at 10 µM on ACAT was -17%. The change in vivo at 50 mg/kg with Hyperlipidemic Hamster (setting [1]) and with Hyperlipidemic Hamster (setting [2]) was 0% in each case.
Take `COc1ccc(N2C(=O)[C@@H](CCCc3ccccc3)[C@H]2c2ccc(N)cc2)cc1` (relative stereo) [Example 8B]: the inhibition at 10 µM at ACAT is -5%. Also, the figures for the change in vivo at 50 mg/kg in the assay with Hyperlipidemic Hamster (setting [1]) and in the assay on Hyperlipidemic Hamster (setting [2]) were -35% and -9%, respectively.
The matching figures for `COc1ccc(N2C(=O)[C@H](CCCc3ccccc3)[C@H]2c2ccc(N)cc2)cc1` (relative stereo) [Example 8C]: 63%, 0% and 0%.
Consider `COc1ccc(N2C(=O)[C@H](CCCc3ccccc3)[C@H]2c2ccc(O)cc2)cc1` (relative stereo) [Example 8F], for which, at ACAT, the inhibition at 10 µM was found to be 8%. Further, in the assay on Hyperlipidemic Hamster (setting [1]), the change in vivo at 25 mg/kg was -45% and the change in vivo at 50 mg/kg was -48%. In the assay on Hyperlipidemic Hamster (setting [2]), the change in vivo at 25 mg/kg is -20% and the change in vivo at 50 mg/kg was -16%.
